According to ChEMBL document CHEMBL1649421, “New drug-like hydroxyphenylnaphthol steroidomimetics as potent and selective 17β-hydroxysteroid dehydrogenase type 1 inhibitors for the treatment of estrogen-dependent diseases” (J Med Chem, 2011):

Assays:
[1] = molecular target: T1, 17-beta-hydroxysteroid dehydrogenase type 1 (Homo sapiens) (UniProt P14061); assay: Inhibition of [3H]E1 binding to human placental 17beta-HSD1 at 100 nM after 10 mins by fluid scintillation counting
T1 sequence (whole entry): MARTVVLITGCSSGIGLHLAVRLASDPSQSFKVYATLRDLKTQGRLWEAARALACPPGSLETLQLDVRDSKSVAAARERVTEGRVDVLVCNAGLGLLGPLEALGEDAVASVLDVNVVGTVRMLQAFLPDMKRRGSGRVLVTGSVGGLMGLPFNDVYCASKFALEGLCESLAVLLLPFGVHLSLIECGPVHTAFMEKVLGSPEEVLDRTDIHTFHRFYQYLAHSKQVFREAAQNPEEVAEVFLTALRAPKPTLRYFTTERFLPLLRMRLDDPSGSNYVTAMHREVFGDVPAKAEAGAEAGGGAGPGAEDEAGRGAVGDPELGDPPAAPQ

[2] = molecular target: T1, 17-beta-hydroxysteroid dehydrogenase type 1 (Homo sapiens); assay: Inhibition of [3H]E1 binding to human placental 17beta-HSD1 at 1 uM after 10 mins by fluid scintillation counting
[3] = molecular target: T2, 17-beta-hydroxysteroid dehydrogenase type 2 (Homo sapiens) (UniProt P37059); assay: Inhibition of [3H]E2 binding to human placental 17beta-HSD2 at 1 uM after 10 mins by fluid scintillation counting
T2 sequence (whole entry): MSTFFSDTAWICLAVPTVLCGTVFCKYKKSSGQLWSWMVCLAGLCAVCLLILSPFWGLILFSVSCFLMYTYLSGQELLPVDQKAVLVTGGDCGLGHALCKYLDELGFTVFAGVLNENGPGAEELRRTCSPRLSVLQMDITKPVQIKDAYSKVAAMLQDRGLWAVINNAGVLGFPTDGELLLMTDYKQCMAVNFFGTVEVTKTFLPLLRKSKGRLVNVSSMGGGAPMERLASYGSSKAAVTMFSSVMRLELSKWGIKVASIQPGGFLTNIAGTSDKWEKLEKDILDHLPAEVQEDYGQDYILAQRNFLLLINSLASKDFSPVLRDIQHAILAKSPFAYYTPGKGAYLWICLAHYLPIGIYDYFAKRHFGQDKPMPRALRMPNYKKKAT

Homo sapiens = organism: Homo sapiens; assay: Selectivity ratio of IC50 for human placental 17beta-HSD2 to IC50 for human placental 17beta-HSD1
[4] = molecular target: T3, 17-beta-hydroxysteroid dehydrogenase type 1 (Homo sapiens, UniProt P14061); assay: Displacement of [3H]E1 from 17beta-HSD1 in human T47D cells after 10 mins by fluid scintillation counting; format: cell-based
T3 sequence (P14061 whole entry): T1 sequence (whole entry)

[5] = molecular target: T4, Estrogen receptor (Homo sapiens) (UniProt P03372); assay: Displacement of [3H]E2 from human recombinant ERalpha by liquid scintillation counting relative to estradiol
T4 sequence (whole entry): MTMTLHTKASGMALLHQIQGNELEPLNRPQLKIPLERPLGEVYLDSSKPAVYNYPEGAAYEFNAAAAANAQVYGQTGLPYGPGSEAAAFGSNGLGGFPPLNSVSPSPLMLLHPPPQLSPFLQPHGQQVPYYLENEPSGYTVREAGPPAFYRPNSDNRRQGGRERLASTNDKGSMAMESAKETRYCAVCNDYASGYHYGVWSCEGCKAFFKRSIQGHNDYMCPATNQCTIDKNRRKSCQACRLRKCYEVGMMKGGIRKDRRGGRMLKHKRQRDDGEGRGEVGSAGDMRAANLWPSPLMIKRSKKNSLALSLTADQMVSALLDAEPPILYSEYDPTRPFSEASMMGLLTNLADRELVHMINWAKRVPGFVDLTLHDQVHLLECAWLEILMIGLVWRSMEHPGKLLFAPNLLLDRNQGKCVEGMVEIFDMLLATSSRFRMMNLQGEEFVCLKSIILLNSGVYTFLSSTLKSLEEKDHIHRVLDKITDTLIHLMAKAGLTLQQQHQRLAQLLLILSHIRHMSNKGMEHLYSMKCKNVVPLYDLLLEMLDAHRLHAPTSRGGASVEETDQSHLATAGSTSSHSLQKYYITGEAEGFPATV

[6] = molecular target: Estrogen receptor beta (Homo sapiens) (UniProt Q92731); assay: Displacement of [3H]E2 from human recombinant ERbeta by liquid scintillation counting relative to estradiol
[7] = molecular target: T1, 17-beta-hydroxysteroid dehydrogenase type 1 (Homo sapiens); assay: Inhibition of [3H]E1 binding to human recombinant 17beta-HSD1 expressed in baculovirus-infected Sf9 cells at 100 nM after 10 mins by fluid scintillation counting
[8] = molecular target: T1, 17-beta-hydroxysteroid dehydrogenase type 1 (Homo sapiens); assay: Inhibition of [3H]E1 binding to human recombinant 17beta-HSD1 expressed in baculovirus-infected Sf9 cells at 1 uM after 10 mins by fluid scintillation counting
[9] = molecular target: T2, 17-beta-hydroxysteroid dehydrogenase type 2 (Homo sapiens); assay: Inhibition of [3H]E2 binding to human recombinant 17beta-HSD2 expressed in baculovirus-infected Sf9 cells at 100 nM after 10 mins by fluid scintillation counting
[10] = molecular target: T2, 17-beta-hydroxysteroid dehydrogenase type 2 (Homo sapiens); assay: Inhibition of [3H]E2 binding to human recombinant 17beta-HSD2 expressed in baculovirus-infected Sf9 cells at 1 uM after 10 mins by fluid scintillation counting

Chain of Estrogen receptor beta (Homo sapiens) (Q92731 whole entry): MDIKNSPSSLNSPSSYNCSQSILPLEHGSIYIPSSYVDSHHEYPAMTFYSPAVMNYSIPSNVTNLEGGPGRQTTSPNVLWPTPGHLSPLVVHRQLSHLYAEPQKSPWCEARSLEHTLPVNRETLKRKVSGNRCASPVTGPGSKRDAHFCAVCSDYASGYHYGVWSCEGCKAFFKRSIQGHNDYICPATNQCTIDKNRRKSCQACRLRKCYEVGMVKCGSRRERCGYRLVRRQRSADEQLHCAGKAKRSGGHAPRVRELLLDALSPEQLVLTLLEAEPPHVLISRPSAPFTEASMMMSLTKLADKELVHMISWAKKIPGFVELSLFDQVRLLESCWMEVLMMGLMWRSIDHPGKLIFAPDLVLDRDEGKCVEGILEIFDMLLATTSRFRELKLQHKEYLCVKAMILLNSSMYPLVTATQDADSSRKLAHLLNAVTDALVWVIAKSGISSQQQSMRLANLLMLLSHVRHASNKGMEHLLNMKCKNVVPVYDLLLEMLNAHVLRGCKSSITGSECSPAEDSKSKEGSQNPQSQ

COc1ncc(-c2c(O)ccc3cc(-c4cccc(O)c4)ccc23)c(OC)n1
inhibition [1]: 31%
inhibition [2]: 79%
inhibition [3]: 9%

Oc1ccc(-c2ccc3c(-c4cncnc4)c(O)ccc3c2)cc1
inhibition [2]: 35%
inhibition [3]: 22%

Oc1ccc2cc(-c3ccccc3)ccc2c1-c1cncnc1
inhibition [2]: 22%
inhibition [3]: < 10%

Oc1cccc(-c2ccc3c(-c4cncnc4)cccc3c2)c1
inhibition [2]: < 10%
inhibition [3]: < 10%

Oc1cccc(-c2ccc3cc(O)ccc3c2)c1
Ratio IC50 (Homo sapiens): 49
IC50 [4]: 0.229 µM
RBA [5]: 0.1%
RBA [6]: 0.1%

CC(=O)Nc1cccc(-c2c(O)ccc3cc(-c4cccc(O)c4)ccc23)c1
inhibition [7]: 35%
inhibition [8]: 82%
inhibition [9]: 24%
inhibition [10]: 64%

O=C(O)c1cccc(-c2c(O)ccc3cc(-c4cccc(O)c4)ccc23)c1
inhibition [7]: 45%
inhibition [8]: 80%
inhibition [9]: < 10%
inhibition [10]: 34%

Cn1cc(-c2c(O)ccc3cc(-c4cccc(O)c4)ccc23)cn1
inhibition [1]: 28%
inhibition [2]: 71%
inhibition [3]: 24%

Oc1ccccc1-c1ccc2c(-c3cncnc3)cccc2c1
inhibition [2]: < 10%
inhibition [3]: < 10%

O=C(O)CCC(=O)Nc1cccc(-c2c(O)ccc3cc(-c4cccc(O)c4)ccc23)c1
inhibition [7]: < 10%
inhibition [8]: 62%
inhibition [9]: 24%
inhibition [10]: 68%
